Source: patent EP0518675A2, “Cyclic renin inhibitors” (MERCK & CO. INC., priority 1991, dated 1992)
Square brackets hold non-standard residues; d marks the D form. Peptide text beside a SMILES is read from it. * marks the point of attachment. Sta = CC(C)C[C@H](N)[C@@H](O)CC(=O)O; Isovaleryl = CC(C)CC(=O)*

Experiments:
[1] = test system: human plasma renin; experiment: human plasma renin IC50 determination at pH 7.4; type: biochemical; conditions: against human plasma renin
Protocol: The following method was used for in vitro evaluation of the renin inhibitors of Formula I: The human plasma renin IC50 values for inhibitors of Formula I were determined at pH 7.4 following the procedure described in J. Boger, L.S. Payne, D.S. Perlow, N.S. Lohr, M. Poe, E.H. Blaine, E. H. Elm, T.W. Schorn, B.I. Lamont, T.-Y. Lin, M. Kawai, D.H. Rich and D.F. Veber, J. Med. Chem., 28, 1779 (1985).

[2] = test system: conscious sodium-deficient Rhesus monkeys; experiment: intravenous evaluation of renin inhibitors in conscious sodium-deficient Rhesus monkeys (blood pressure lowering); type: in vivo; conditions: i.v. bolus injection, mean arterial pressure
Text: The following methods were used for in vivo evaluation of the renin inhibitors of Formua I: Intravenous evaluation of renin inhibitors in conscious sodium-deficient Rhesus monkeys: Rhesus monkeys, male and female, weighing 2.6 - 4.5 Kg, were surgically prepared with chronic arterial and venous catheters and vascular access ports for direct monitoring of mean arterial pressure (MAPI) and heart rate (HR). The animals were maintained on a low sodium diet (1.2 mmol Na/day) plus fruit for a week, and administered LASIX (furosemide) at2.5 mg/Kg, intramuscularly the evening prior to the experiment. The animals had been trained to sit quietly in the chairs with water AD LIBIUM for the duration of the experiment. The inhibitors were administered by bolus injection using 0.5% acetic acid-5% dextrose in water as the vehicle (0.4 ml/Kg), and MAP and HRwere measured. Blood samples were withdrawn at different time intervals beginning at the nadir of hypotensive response. PRA was determined as described above. […] A projected ED50 dose for each inhibitor was calculated using the following formula: ED50 (Test Inhibitor, umoles/Kg) = ED50 (SCRIP) X [IC50 (Test Inhibitor)/IC50 (SCRIP)], where the IC50 values were determined against human plasma renin. […] Percent inhibition of monkey PRA, changes in MAP and HR were calculated and plotted against time. […]

- IC50 [1]: 3.7 nM
Compound: CC(C)CC(=O)N[C@@H](Cc1c[nH]cn1)C(=O)N1CCC[C@H]1C(=O)N[C@@H](Cc1ccccc1)C(=O)N[C@@H](Cc1c[nH]cn1)C(=O)N[C@@H](CC(C)C)[C@@H](O)CC(=O)N[C@@H](CC(C)C)C(=O)N[C@@H](Cc1ccccc1)C(N)=O [SCRIP, Iva-His-Pro-Phe-His-Sta-Leu-Phe-NH2] (Isovaleryl-HPFH[Sta]LF-NH2)
- i.v. dose of the standard inhibitor required to lower blood pressure by 50% of the maximal response (ED50) [2]: 0.039 µmol/kg
